Like-named read-outs stand apart in the source and are kept apart here.
Columns and labels:
DGKα = DGKα (Homo sapiens (Human), UniProt P23743); experiment: biochemical; assay type: biochemical
human DGKζ = human DGKζ (Homo sapiens (Human), UniProt Q13574); experiment: biochemical; assay type: biochemical
[1] = tested on: Human venous whole blood (IFN-γ); experiment: Human whole blood IFN-γ assay; assay type: cell-based
Method: Assay 10: Human Whole Blood IFN-γ Assay
Human venous whole blood (22.5 μL per well), obtained from healthy donors, was pre-treated with compounds for one hour at 37° C. in a humidified 95% air/5% CO2 incubator. The blood was stimulated with 2.5 μL anti-human CD3 and anti-CD28 mAb at a final concentration of 1 μg/mL each for 24 hours at 37° C. IFN-γ in the supernatants was measured using AlphLISA kit (Cat #AL217).

[2] = liposome (LIPGLO) assay, read-out: DGKα LIPGLO IC50
[3] = liposome (LIPGLO) assay, read-out: DGKζ LIPGLO IC50
[4] = human whole blood, anti-CD3 plus anti-CD28, 24 hours, read-out: INFg Whole Blood Normalized Agonist EC50
[5] = Table A, liposome (LIPGLO) assay, read-out: DGKα
[6] = Table A, liposome (LIPGLO) assay, read-out: DGKζ
[7] = human whole blood IFN-γ, read-out: INFg Whole Blood
[8] = Homo sapiens, 24 h, human whole blood, anti-CD3 plus anti-CD28, 24 hours, read-out: INFg Whole Blood Normalized Agonist EC50

Chain of DGKα (P23743 whole entry, looked up): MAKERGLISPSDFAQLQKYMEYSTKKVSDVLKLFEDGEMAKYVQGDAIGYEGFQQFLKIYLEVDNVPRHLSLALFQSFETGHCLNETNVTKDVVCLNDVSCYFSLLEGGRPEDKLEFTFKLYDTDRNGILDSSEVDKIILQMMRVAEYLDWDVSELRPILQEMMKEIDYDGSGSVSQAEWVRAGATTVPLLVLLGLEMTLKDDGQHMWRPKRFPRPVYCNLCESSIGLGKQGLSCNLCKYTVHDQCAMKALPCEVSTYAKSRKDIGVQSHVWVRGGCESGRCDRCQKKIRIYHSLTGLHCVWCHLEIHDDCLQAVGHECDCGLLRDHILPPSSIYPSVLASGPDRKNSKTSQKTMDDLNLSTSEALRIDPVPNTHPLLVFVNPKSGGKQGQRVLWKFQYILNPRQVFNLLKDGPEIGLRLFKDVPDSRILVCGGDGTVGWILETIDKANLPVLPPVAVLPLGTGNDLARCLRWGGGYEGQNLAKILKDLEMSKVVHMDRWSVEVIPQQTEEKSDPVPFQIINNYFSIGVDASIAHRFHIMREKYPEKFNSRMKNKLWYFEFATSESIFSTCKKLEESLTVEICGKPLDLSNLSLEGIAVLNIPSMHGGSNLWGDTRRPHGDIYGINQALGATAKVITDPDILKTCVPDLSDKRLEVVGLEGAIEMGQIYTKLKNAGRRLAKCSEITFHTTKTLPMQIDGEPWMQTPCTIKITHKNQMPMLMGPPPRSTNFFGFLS
Chain of human DGKζ (Q13574 whole entry, looked up): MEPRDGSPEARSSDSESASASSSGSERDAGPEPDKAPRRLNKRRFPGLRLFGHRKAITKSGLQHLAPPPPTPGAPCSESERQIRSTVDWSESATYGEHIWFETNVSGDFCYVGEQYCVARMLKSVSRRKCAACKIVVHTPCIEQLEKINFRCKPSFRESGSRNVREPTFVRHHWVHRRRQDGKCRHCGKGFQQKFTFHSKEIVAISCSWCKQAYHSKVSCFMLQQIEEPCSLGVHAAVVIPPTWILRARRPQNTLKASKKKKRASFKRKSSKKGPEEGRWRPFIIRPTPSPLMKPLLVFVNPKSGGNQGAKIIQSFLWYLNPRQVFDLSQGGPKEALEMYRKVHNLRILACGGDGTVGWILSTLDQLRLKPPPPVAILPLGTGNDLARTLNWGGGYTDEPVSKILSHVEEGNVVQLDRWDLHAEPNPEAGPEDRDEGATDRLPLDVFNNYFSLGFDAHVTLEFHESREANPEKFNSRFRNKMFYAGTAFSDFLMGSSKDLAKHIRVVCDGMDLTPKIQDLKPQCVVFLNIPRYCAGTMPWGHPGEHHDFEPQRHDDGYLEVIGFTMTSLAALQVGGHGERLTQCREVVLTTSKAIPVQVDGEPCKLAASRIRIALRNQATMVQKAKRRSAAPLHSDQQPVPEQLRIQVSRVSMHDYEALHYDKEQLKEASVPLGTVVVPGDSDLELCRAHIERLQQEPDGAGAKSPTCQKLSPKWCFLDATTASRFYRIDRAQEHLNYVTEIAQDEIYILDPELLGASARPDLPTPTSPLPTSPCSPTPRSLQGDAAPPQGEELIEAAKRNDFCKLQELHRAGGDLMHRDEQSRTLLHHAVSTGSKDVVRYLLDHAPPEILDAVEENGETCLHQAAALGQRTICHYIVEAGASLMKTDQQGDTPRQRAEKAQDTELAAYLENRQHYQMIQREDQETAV

Structure (SMILES) | IC50 (DGKα; [2]) [µM] | IC50 (human DGKζ; [3]) [µM] | EC50 [1, 4] [µM] | EC50 [1, 8] [µM] | other results
CC(C)c1ccc(O[C@H]2CCN(c3cc(=O)n(C)c4ccc(C#N)nc34)C[C@H]2C)cc1 [Example 182, 8-((3R,4S)-4-(4-isopropylphenoxy)-3-methylpiperidin-1-yl)-5-methyl-6-oxo-5,6-dihydro-1,5-naphthyridine-2-carbonitrile] | 1.1 | 1.8 | 2.8 | – | –
CC(C)c1ccc(O[C@H]2CCN(c3cc(=O)n(C)c4ccc(C#N)nc34)C[C@H]2C)cc1 (single isomer, unassigned) [Example 184] | – | – | – | – | IC50 (DGKα; [5]): 1.4 µM; IC50 (human DGKζ; [6]): 6 µM; EC50 [1, 7]: 4 µM
CC(C)c1ccc(O[C@H]2CCN(c3cc(=O)n(C)c4ccc(C#N)nc34)C[C@H]2C)cc1 (single isomer, unassigned) [Example 183] | – | – | – | – | IC50 (DGKα; [5]): 0.71 µM; IC50 (human DGKζ; [6]): 0.94 µM; EC50 ([1]; Homo sapiens, human whole blood IFN-γ, read-out: INFg Whole Blood): 2.6 µM
C[C@@H]1CN(c2cc(=O)n(C)c3ccc(C#N)nc23)CC[C@H]1Oc1ccc(C2CCCC2)cc1 [Example 100, 8-((3R,4R)-4-(4-cyclopentylphenoxy)-3-methylpiperidin-1-yl)-5-methyl-6-oxo-5,6-dihydro-1,5-naphthyridine-2-carbonitrile] | 0.11 | 28 | – | 2.7 | –
Cn1c(=O)cc(N2CCC(Oc3ccc4c(c3)CCCC4)CC2)c2nc(C#N)ccc21 [Example 61, 5-methyl-6-oxo-8-(4-((5,6,7,8-tetrahydronaphthalen-2-yl)oxy)piperidin-1-yl)-5,6-dihydro-1,5-naphthyridine-2-carbonitrile] | 0.73 | 4.7 | – | 8.5 | –
Cn1c(=O)cc(N2CCC(Oc3ccc(C(C)(C)C)nn3)CC2)c2nc(C#N)ccc21 [Example 68, 8-(4-((6-(tert-butyl)pyridazin-3-yl)oxy)piperidin-1-yl)-5-methyl-6-oxo-5,6-dihydro-1,5-naphthyridine-2-carbonitrile] | 1.7 | 1.7 | – | 9.6 | –
CCC(C)(C)c1ccc(O[C@H]2CCN(c3cc(=O)n(C)c4ccc(C#N)nc34)C[C@H]2C)cc1 (single isomer, unassigned) [Example 171] | – | – | 3 | – | IC50 (DGKα; read-out: DGKα LIPGLO IC50): 1.4 µM; IC50 (human DGKζ; read-out: DGKζ LIPGLO IC50): 3.7 µM
CC[C@@H]1CN(c2cc(=O)n(C)c3ccc(C#N)nc23)CC[C@H]1Oc1ccc(OC(C)(C)C)cc1 (single isomer, unassigned) [Example 160] | 1.7 | 3.3 | 4.5 | – | –
C[C@@H]1CN(c2cc(=O)n(C)c3ccc(C#N)nc23)CC[C@@H]1Oc1cccc(C2CC2)c1 [Example 179, 8-((3R,4S)-4-(3-cyclopropylphenoxy)-3-methylpiperidin-1-yl)-5-methyl-6-oxo-5,6-dihydro-1,5-naphthyridine-2-carbonitrile] | 0.069 | 1.2 | – | 2.4 | –
CCCCc1ccc(OC2CCN(c3cc(=O)n(C)c4ccc(C#N)nc34)CC2)cc1 [Example 56, 8-(4-(4-butylphenoxy)piperidin-1-yl)-5-methyl-6-oxo-5,6-dihydro-1,5-naphthyridine-2-carbonitrile] | 0.84 | 13 | – | 3.8 | –
CC(C)c1ccc(O[C@@H]2CCN(c3cc(=O)n(C)c4ccc(C#N)nc34)C[C@H]2C)cc1 (single isomer, unassigned) [Example 96] | 0.057 | 20 | 2.6 | – | –
Cn1c(=O)cc(N2CCC(Oc3nncc4ccccc34)CC2)c2nc(C#N)ccc21 [Example 75, 5-methyl-6-oxo-8-(4-(phthalazin-1-yloxy)piperidin-1-yl)-5,6-dihydro-1,5-naphthyridine-2-carbonitrile] | 27 | 18 | – | 20 | –
C[C@@H]1CN(c2cc(=O)n(C)c3ccc(C#N)nc23)CC[C@H]1Oc1ccc(F)cc1C(F)(F)F (single isomer, unassigned) [Example 117] | 2 | 20 | – | 4.6 | –
Cc1cccc(O[C@@H]2CCN(c3cc(=O)n(C)c4ccc(C#N)nc34)C[C@H]2C)c1 [Example 107, 5-methyl-8-((3R,4R)-3-methyl-4-(m-tolyloxy)piperidin-1-yl)-6-oxo-5,6-dihydro-1,5-naphthyridine-2-carbonitrile] | – | – | – | 13 | IC50 (DGKα; DGKα LIPGLO IC50): 0.13 µM; IC50 (human DGKζ; DGKζ LIPGLO IC50): 24 µM
Cc1cccc(O[C@@H]2CCN(c3cc(=O)n(C)c4ccc(C#N)nc34)C[C@H]2C)c1 (single isomer, unassigned) [Example 108] | 0.91 | 11 | – | 3 | –
CC(C)c1ccc(O[C@@H]2CCN(c3cc(=O)n(C)c4ccc(C#N)nc34)C[C@H]2C)cc1 (single isomer, unassigned) [Example 95] | 0.4 | 5 | 1 | – | –
C[C@@H]1CN(c2c(C#N)c(=O)n(C)c3ccc(C#N)nc23)CC[C@@H]1Oc1ccc(C(F)(F)F)cc1 [Example 191, 5-methyl-8-((3R,4S)-3-methyl-4-(4-(trifluoromethyl)phenoxy)piperidin-1-yl)-6-oxo-5,6-dihydro-1,5-naphthyridine-2,7-dicarbonitrile] | – | – | – | – | IC50 (DGKα; [5]): 1.8 µM; IC50 (human DGKζ; [6]): 8.6 µM; EC50 [1, 7]: 20 µM
Cn1c(=O)cc(N2CCC(Oc3nccc4cccnc34)CC2)c2nc(C#N)ccc21 [Example 74, 8-(4-((1,7-naphthyridin-8-yl)oxy)piperidin-1-yl)-5-methyl-6-oxo-5,6-dihydro-1,5-naphthyridine-2-carbonitrile] | 2.8 | 3.3 | – | 20 | –
Cc1cc(OC2CCN(c3cc(=O)n(C)c4ccc(C#N)nc34)CC2)nc(C)n1 [Example 70, 8-(4-((2,6-dimethylpyrimidin-4-yl)oxy)piperidin-1-yl)-5-methyl-6-oxo-5,6-dihydro-1,5-naphthyridine-2-carbonitrile] | 12 | 11 | – | 20 | –
Cc1ccc(O[C@@H]2CCN(c3cc(=O)n(C)c4ccc(C#N)nc34)C[C@H]2C)cc1 (single isomer, unassigned) [Example 121] | 1.8 | 9.9 | 6.7 | – | –
Cc1cc(OC2CCN(c3cc(=O)n(C)c4ccc(C#N)nc34)CC2)ccc1C(C)C [Example 60, 8-(4-(4-isopropyl-3-methylphenoxy)piperidin-1-yl)-5-methyl-6-oxo-5,6-dihydro-1,5-naphthyridine-2-carbonitrile] | 0.24 | 5.5 | – | 7.9 | –
C[C@@H]1CN(c2cc(=O)n(C)c3ccc(C#N)nc23)CC[C@H]1Oc1cccc(C2CC2)c1 (single isomer, unassigned) [Example 93] | 0.3 | 18 | 5.9 | – | –
Cn1c(=O)cc(N2CCC(Oc3ccc(OC(C)(C)C)cc3)CC2)c2nc(C#N)ccc21 [Example 65, 8-(4-(4-(tert-butoxy)phenoxy)piperidin-1-yl)-5-methyl-6-oxo-5,6-dihydro-1,5-naphthyridine-2-carbonitrile] | 0.56 | 3.3 | – | 6.8 | –
CC[C@@H]1CN(c2cc(=O)n(C)c3ccc(C#N)nc23)CC[C@H]1Oc1cccc(C(C)(C)C)c1 (single isomer, unassigned) [Example 198] | – | – | – | – | IC50 (DGKα; [5]): 0.16 µM; IC50 (human DGKζ; [6]): 1.3 µM; EC50 ([1]; read-out: INFg Whole Blood, human whole blood IFN-γ): 3.1 µM
C[C@@H]1CN(c2cc(=O)n(C)c3ccc(C#N)nc23)CC[C@H]1Oc1ccc(C2CCCC2)cc1 (single isomer, unassigned) [Example 101] | 0.43 | 6.8 | 1.4 | – | –

From US11964973B2 (priority 2019, dated 2024)
